Results as given in patent US20240245633A1, “ROR Gamma Agonists as Enhancers of Protective Immunity” (University of Florida Research Foundation, Incorporated, priority 2015, published 2024).
Marks after values point to notes of the source that are not given here.

Key:
[1] = target: T1, RORγ LBD / SRC1-3 NR box peptide (Homo sapiens, UniProt P51449); assay: NR box peptide interaction assay (TR-FRET); assay type: biochemical; details: concentration response
T1 sequence (P51449 269-508 limits assumed): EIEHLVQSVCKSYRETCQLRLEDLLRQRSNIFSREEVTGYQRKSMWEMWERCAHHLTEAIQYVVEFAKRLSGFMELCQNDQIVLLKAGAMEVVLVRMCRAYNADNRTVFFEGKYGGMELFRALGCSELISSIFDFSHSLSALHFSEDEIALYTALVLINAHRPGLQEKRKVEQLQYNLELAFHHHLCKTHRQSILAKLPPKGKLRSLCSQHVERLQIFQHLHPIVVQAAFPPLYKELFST
Procedure: NR box peptide interaction assay. A TR-FRET-based interaction assay was used. […] The mixtures were incubated for 2 hr at R.T., and fluorescence intensity was measured on an Envision pate reader with excitation at 340 nm and emission at 490 nm and 520 nm. The ratio of intensity at 520 nm/490 nm was used to calculate cofactor recruitment activity.

[2] = target: T2, RORγt LBD pretreated with ursolic acid (Homo sapiens, UniProt P51449); assay: Differential HDX-MS of RORγt pretreated with ursolic acid ± compound; assay type: binding
T2 construct: 5 μL of a 10 μM RORγt LBD solution (Apo or in complex with 10-excess compound)
T2 sequence (P51449 269-508 limits assumed): T1 sequence (P51449 269-508 limits assumed)
From the text: While the mechanism of action of RORγt agonists on regulation of the immune checkpoint receptor PD-1 is unclear, a correlation between RORγt and PD-1 expression has been observed in PD-1 knockout mice Z Regardless, to gain insights into the structural mechanism for agonist activity we examined the impact of putative agonist ligands on the conformational dynamics of RORγt. To achieve this, we utilized differential hydrogen/deuterium exchange (HDX) mass spectrometry.
HDX-MS. Solution-phase amide HDX was performed with a fully automated system as described previously with minor modifications^30,31. For differential HDX experiments, 5 μL of a 10 μM RORγt LBD solution (Apo or in complex with 10-excess compound) was diluted to 25 μL with D20-containing HDX buffer, and incubated at 4° C. for; 10 s, 30s, 60s, 900s, and 3,600s, Following on-exchange, unwanted forward or back exchange is minimized and the protein is denatured by dilution to 50 μL with 0.1% TFA in 3M urea (held at 4° C., pH 2.5). Samples are then passed across an immobilized pepsin column (prepared in house) at 50 μL min−1 (0.1% TFA, 15° C.) and the resulting peptides are trapped onto a Ce trap cartridge (Thermo Fisher, Hypersil Gold). Peptides were then gradient eluted (4% CH3CN to 40% CH3CN, 0,3% formic acid over 5 minutes, 4° C.) across a 1 mm×50 mm Cia HPLC column (Hypersil Gold, Thermo Fisher) and electrosprayed directly into a high resolution orbitrap mass spectrometer (Exactive, Thermo Fisher). Percent deuterium exchange values for peptide isotopic envelopes at each time point were calculated and processed using HDX Workbench^32 and overlaid onto RORγt crystal structures using pyMOL (DeLano Scientific). HDX data is presented as an average of three individual replicates across […] time points (10s, 60s, 300s, 900s, and 3600s).

[3] = target: T3, RORγt (Homo sapiens, UniProt P51449); details: Circular Dichroism; cited from earlier work
T3 sequence (P51449 1-497 isoform P51449-2): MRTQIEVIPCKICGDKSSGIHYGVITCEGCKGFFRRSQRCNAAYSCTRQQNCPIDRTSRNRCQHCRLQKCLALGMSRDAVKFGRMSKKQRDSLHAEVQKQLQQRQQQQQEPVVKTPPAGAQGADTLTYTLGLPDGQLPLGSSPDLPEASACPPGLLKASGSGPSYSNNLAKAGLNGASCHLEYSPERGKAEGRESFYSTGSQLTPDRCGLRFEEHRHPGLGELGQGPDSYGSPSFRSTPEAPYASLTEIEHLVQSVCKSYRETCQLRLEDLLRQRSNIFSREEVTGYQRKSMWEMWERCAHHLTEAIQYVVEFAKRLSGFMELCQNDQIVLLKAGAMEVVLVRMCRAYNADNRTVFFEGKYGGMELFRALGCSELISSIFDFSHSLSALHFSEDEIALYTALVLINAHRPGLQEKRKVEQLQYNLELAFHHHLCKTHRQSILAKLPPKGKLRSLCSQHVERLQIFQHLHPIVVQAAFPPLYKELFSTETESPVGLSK

[4] = tested on: ROR target genes FGF21 and G6Pase; details: in cells and in vivo; cited from earlier work
[5] = target: ligand binding domain (LBD) of RORγt (Homo sapiens, UniProt P51449); details: read-out: IC50, competitive radioligand binding; cited from earlier work
[6] = target: T4, Gal4-RORγ (Homo sapiens, UniProt P51449); assay: cell-based; details: HEK-293T, read-out: fold induction of reporter gene expression
T4 sequence (P51449 269-508 limits assumed): T1 sequence (P51449 269-508 limits assumed)

[7] = tested on: EL4 T lymphocytes; assay: qPCR gene expression in PMA/ionomycin stimulated EL4 cells; assay type: cell-based, murine; details: PMA/ionomycin 5 hr
Procedure: Here we used murine EL4 T lymphocytes or human Jurkat T cells as model systems to analyze gene expression upon T cell activation. Following treatment of cells with Phorbol 12-myristate 13-acetate (PMA) and ionomycin, the expression of granzyme B (cytotoxicity marker), PD-1 (immune checkpoint) and the RORγt target gene IL17 were analyzed by qPCR.
(§1) Gene expression and Cell sorting. Jurkat T cells were pre-incubated with compounds for 48 hr and activated with phorbol 12-myristate 13-acetate (PMA, 50 ng/mL; Sigma) and ionomycin (1 μg/mL; Sigma) for 5 hr. For qPCR, mRNA was isolated with an RNeasy midi kit using DNase I (Qiagen), and cDNA was synthesized with high capacity cDNA Reverse Transcription kit (Applied Biosystems). IL17A, PD-1, and granzyme B gene expression were normalized to the expression of GAPDH. The sequence of primers used in this study are found in Table 2. For cell sorting, activated Jurkat T cells were stained with APC conjugated anti-human PD-1 antibody (eBioscience). Cell sorting was performed using LSRII (BD Bioscience).

[8] = tested on: EL4 cells; assay: PD-1 surface expression in EL4 cells by flow cytometry; assay type: cell-based, murine; details: compound 48 hr
Procedure: (§2) Using flow cytometery surface PD-1 expression was analyzed to determine if the decrease in gene expression of PD-1 correlates to a decrease of the protein on the cell surface, Cell: surface PD-1 expression was measured in murine and human T cell lines as well as in ex vivo differentiated murine TH17 cells. […] Next we examined the impact of compound treatment on differentiated murine TH17 cells. […] To determine if there was an increase in the active T cell population during TH17 cell differentiation, the population of CD62L^−PD1^− double negative cells was measured using flow cytometry. […] To determine if the effects of SR0987 on PD-1 expression would be observed in a human cell line, Jurkat T cells were treated with the compound.
as §1, with “Cell sorting was performed using LSRII (BD Bioscience).” left out

[9] = tested on: differentiated TH17 cells; assay: TH17 cell differentiation, flow cytometry; assay type: cell-based, murine
Procedure: as §2
TH17 cell differentiation. For naïve T cell differentiation, CD4^+T cells were enriched by negative selection using a magnetic-activated cell sorter kit (Millipore). Enriched CD4+ T cells activated with 5 μg/mL of plate-abound anti CD3 antibody and 1 μg/mL of anti-CD28 antibody in the presence of 20 μg/mL of anti-IFNγ, 20 μg/mL of anti-IL-4, 1 ng/mL of TGFβ, AND 10 ng/mL of IL-6. Four-five days post differentiation, all cells were stimulated for 5 hr with 5 ng/mL of phorbol-12-myristate-13-acetate (Sigma) and 500 ng/mL of ionomycin (Sigma) contained with brefeldin A solution (eBioscience).

[10] = tested on: Jurkat T cells; assay: PD-1 surface expression in Jurkat T cells; assay type: cell-based, human
Procedure: as §2
as §1, with “Cell sorting was performed using LSRII (BD Bioscience).” left out

For `O=C(Nc1ccc(C(O)(C(F)(F)F)C(F)(F)F)cc1)c1ccc(C(F)(F)F)cc1` [SR1078], the “interaction of RORγt with SRC1-3 NR box peptide” value [1] was “concentration dependent increase in interaction”, the “protection to solvent exchange in H12” value ([2]; RORγt exposed to ursolic acid, then compound) was “induced protection to solvent exchange in H12” and the “Differential HDX kinetics, peptide TEIEHLVQ” value ([2]; UA pretreated, 268-275, charge 2, H1) was −2(3)*. For the same molecule, the “Differential HDX kinetics, peptide TEIEHLVQSVC” value ([2]; UA pretreated, 268-278, charge 2, H1) was 0(3)*, the “Differential HDX kinetics, peptide TEIEHLVQSVCKS” value ([2]; UA pretreated, 268-280, charge 3, H1) was 1(4)* and the “Differential HDX kinetics, peptide TEIEHLVQSVCKSYRETCQ” value ([2]; UA pretreated, 268-286, charge 3, H1) was 0(3)*. The “Differential HDX kinetics, peptide TEIEHLVQSVCKSYRETCQ” value ([2]; UA pretreated, 268-286, charge 4, H1) was 1(3)*, the “Differential HDX kinetics, peptide RLEDL” value ([2]; UA pretreated, 288-292, charge 1, H2) was −2(4)* and the “Differential HDX kinetics, peptide RLEDLL” value ([2]; UA pretreated, 288-293, charge 1, H2) was −3(5)*. The “Differential HDX kinetics, peptide EVTGYQRKSMWEM” value ([2]; UA pretreated, 304-316, charge 2, H3/H4) was 1(4)*, the “Differential HDX kinetics, peptide WERCAHHLTEAIQ” value ([2]; UA pretreated, 317-329, charge 3, H4) was 0(1)* and the “Differential HDX kinetics, peptide WERCAHHTEAIQY” value ([2]; UA pretreated, 317-330, charge 3, H4) was 1(1)*. The “Differential HDX kinetics, peptide WEGAKRLSGF” value ([2]; UA pretreated, 331-341, charge 2, H4/H5) was 0(2)*, the “Differential HDX kinetics, peptide FAKRLSGF” value ([2]; UA pretreated, 334-341, charge 2, H4/H5) was 0(2)* and the “Differential HDX kinetics, peptide CQNDQM” value ([2]; UA pretreated, 345-352, charge 1, H5/H6) was 0(1)*. The “Differential HDX kinetics, peptide CRAYNADNRTVF” value ([2]; UA pretreated, 368-377, charge 2, B1) was 2(1)*, the “Differential HDX kinetics, peptide YNADNRTVF” value ([2]; UA pretreated, 369-377, charge 2, B1) was 1(3)* and the “Differential HDX kinetics, peptide FEGKYGGMEL” value ([2]; UA pretreated, 378-387, charge 2, B2/H7) was 2(3)*. For the same molecule, the “Differential HDX kinetics, peptide FRALGCSEL” value ([2]; UA pretreated, 388-395, charge 2, H7/H8) was −1(2)*, the “Differential HDX kinetics, peptide LISSIFDFSHSLSAL” value ([2]; UA pretreated, 396-410, charge 2, H8) was 2(2)* and the “Differential HDX kinetics, peptide ISSIFD” value ([2]; UA pretreated, 397-407, charge 1, H8) was 1(2)*. The “Differential HDX kinetics, peptide ISSIFDFSHSLSAL” value ([2]; UA pretreated, 397-410, charge 2, H8) was 2(2)*, the “Differential HDX kinetics, peptide IFDFSHSLSAL” value ([2]; UA pretreated, 400-410, charge 2, H8) was 3(2)* and the “Differential HDX kinetics, peptide DFSHSKSAL” value ([2]; UA pretreated, 402-410, charge 2, H8) was 2(2)*. The “Differential HDX kinetics, peptide FSHSLSAL” value ([2]; UA pretreated, 403-410, charge 2, H8) was 2(3)*, the “Differential HDX kinetics, peptide AXLPPXGKLRSLCSQ” value ([2]; UA pretreated, 454-478, charge 3, H11) was 0(4)* and the “Differential HDX kinetics, peptide HVERLQIFQHLHPIWQ” value ([2]; UA pretreated, 479-495, charge 2, H11) was −6(3)*. The “Differential HDX kinetics, peptide AAFPPLYKEL” value ([2]; UA pretreated, 496-505, charge 2, H12) was −7(2)*, the “Differential HDX kinetics, peptide AAFPPLYKELF” value ([2]; UA pretreated, 496-506, charge 2, H12) was −5(2)* and the “Differential HDX kinetics, peptide HFSEDEIAL” value ([2]; UA pretreated, charge 2, H9) was 0(1)*. For the same molecule, the “Differential HDX kinetics, peptide QIFQHLHPIWQ” value ([2]; UA pretreated, charge 2, H11) was −10(3)*, the “Differential HDX kinetics, peptide TEIEHLVQSVCKSYRETCQL” value ([2]; UA pretreated, charge 3, H1) was 0(4)* and the “Differential HDX kinetics, peptide VRMCRAYNADNRTVF” value ([2]; UA pretreated, charge 3, H6/B1) was 1(1)*. For the same molecule, the “interaction with RORγt via thermal shift assay” value [3] was “direct interaction”, the “expression of ROR target genes FGF21 and G6Pase” value [4] was “induced the expression of the ROR target genes FGF21 and G6Pase” and the IC50 [5] was ~15 µM. For the same molecule, the fold induction at 30 µM [6] was ≥ 2.

With `O=C(Nc1ccc(C(O)(C(F)(F)F)C(F)(F)F)cc1)c1ccccc1Cl` [SR0987, 2-chloro-N-(4-(1,1,1,3,3,3-hexafluoro-hydroxypropan-2-yl)phenyl)benzamide] the “IL17 mRNA expression” value [7] was “further increase in expression of IL17”, the “PD-1 mRNA expression” value [7] was “decrease in expression of PD-1” and the “granzyme B mRNA expression” value [7] was “did not impact the expression of granzyme B”. The “surface expression of PD-1” value [8] was “statistically significant reduction of the surface expression of PD-1”, the “CD62L−PD1−CD4+ cell population” value ([9]; compared to DMSO treated cells) was “statistically significant increase” and the “IL17 production (intracellular staining of IL17A)” value ([9]; murine TH17 cells) was “trend towards increased IL17 production”. The “surface PD-1 expression” value ([9]; murine TH17 cells) was “repress surface PD-1 expression” and the “cell surface PD-1 expression” value [10] was “decreased cell surface PD-1 expression”.
